Results on two compounds are retold here after patent US12048686B2, “Compositions and methods for activating NRF2-dependent gene expression” (The University of Chicago, priority 2018, dated 2024).

In series [1] the test system is NRF2 target genes NQO1 and HMOX1. The series can be described thus: Quantitative RT-PCR of NRF2 target genes in IMR32 cells. The series is classed as cell-based. The following applies: MGx 1 mM. As for the experimental part: FIG. 2A-F. Methylglyoxal modifies KEAP1 to form a covalent, high molecular weight dimer and activate NRF2 signaling. (a) Time-course, anti-FLAG Western blot analysis of whole cell lysates from HEK293T cells expressing FLAG-KEAP1 treated with DMSO or CBR-470-1. (b) Western blot monitoring of FLAG-KEAP1 migration in HEK293 T lysates after incubation with central glycolytic metabolites in vitro (1 and 5 mM, left and right for each metabolite). (c) FLAG-KEAP1 (red) and β-actin (green) from HEK293T cells treated with MGx (5 mM) for 8 hr. (d) Relative NQO1 and HMOX1 mRNA levels in IMR32 cells treated with MGx (1 mM) or water control (n=3). (e) LC-MS/MS quantitation of cellular MGx levels in IMR32 cells treated with CBR-470-1 relative to DMSO (n=4). (f) ARE-LUC reporter activity in HEK293T cells with transient shRNA knockdown of GLO1 (n=8). Univariate two-sided t-test (d, f); data are mean±SEM of biologically independent samples.
Quantitative RT-PCR. Cells were collected by trypsinization and subsequent centrifugation at 500 g. […] Quantitative RT-PCR reactions were measured on a Viia 7 Real-Time PCR system (Thermo) using a Clontech SYBR green-based master mix. Reactions were normalized to TUBG1 levels for each biological replicate and relative transcript abundance calculated using the comparative Ct method.

The next series has as its system IMR32 cells. The series can be described thus: IMR32 viability with co-treatments (cell titer glo). The series is classed as cell-based. The following applies: IMR32 cells, 48 hrs, combinations of doses with BBGC. As for the experimental part:
FIG. 38. PGK1 toxicity can be rescued with metabolites that are involved with GSH biosynthesis and quenching of reactive oxygen species and methylglyoxal. […] IMR32 cells treated for 48 hr in presence of indicated drugs.
PGK1 toxicity can be rescued with metabolites that are involved with GSH biosynthesis and quenching of reactive oxygen species and methylglyoxal.
IMR32 cells were treated for 48 hrs with CBR-470-1 and/or BBGC at combinations of doses in a synergy matrix (FIG. 41). […] Viability measured using cell titer glo assay (Promega). Viability decreased at higher concentrations of CBR-470-1 and BBGC start at 5 uM. […] Sensitivity of cell lines to direct inhibition of GLO1 (which detoxifies MGO) is generally correlated with sensitivity to PGK1 inhibition with CBR-470-1-consistent with MGO buildup playing a role in toxicity.
A general note: ATP-based viability assays read luminescence as a measure of living cells.

Series [2] is described as follows: LC-MS quantification of compound incubated with or without GSH (glutathione reactivity). It is filed as physicochemical. The note with it: 50 μM compound, GSH 1 mM in PBS, 1 hour and 48 hours. As for the experimental part:
FIG. 4 A high throughput screen identifies a non-covalent NRF2 activator chemical series which activate a robust NRF2 transcriptional program in multiple cell types. LC-MS quantification of CBR-470-1 (50 μM) incubated in the presence or absence of GSH (1 mM) in PBS for 1 hour (left) and 48 hours (right). Relative ion intensities within each time point were compared with representative chromatograms shown (n=2).

Series [3] has as its system Primary murine alveolar macrophages. Put plainly: PM-induced mRNA expression in primary murine alveolar macrophages. It is filed as cell-based. The following applies: pretreated 4 hours, 4 hours later. As for the experimental part:
FIG. 19A-C. Primary murine alveolar macrophages were treated with PM or vehicle control (media) in the absence or presence of CBR-470-1 (pretreated 4 hours prior to PM) and measured IL-6, TNFa and NQO1 mRNA 4 hours later.

The target in the next series is T1, PGK1 (Homo sapiens, UniProt P00558).
T1 sequence (P00558 1-417): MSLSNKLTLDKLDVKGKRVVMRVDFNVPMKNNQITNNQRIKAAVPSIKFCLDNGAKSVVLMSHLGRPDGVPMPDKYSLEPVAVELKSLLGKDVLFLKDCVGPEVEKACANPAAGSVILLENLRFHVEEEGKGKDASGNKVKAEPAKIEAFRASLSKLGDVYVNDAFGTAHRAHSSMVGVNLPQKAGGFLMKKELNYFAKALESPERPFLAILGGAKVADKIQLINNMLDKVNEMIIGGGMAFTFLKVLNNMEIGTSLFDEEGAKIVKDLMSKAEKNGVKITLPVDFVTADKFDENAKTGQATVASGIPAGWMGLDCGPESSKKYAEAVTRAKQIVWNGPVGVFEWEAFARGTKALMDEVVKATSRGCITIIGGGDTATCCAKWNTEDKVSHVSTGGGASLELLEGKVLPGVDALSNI
The series can be described thus: Isothermal dose response profiling of PGK1 against GAPDH. It is filed as binding. The note with it: 57° C., 0-333 μM. As for the experimental part:
FIG. 5A-E. A photoactivatable affinity probe-based approach identifies PGK1 as the relevant cellular target of CBR-470-1. (a) Silver staining and anti-biotin Western blots of ammonium sulfate fractionated lysates from UV-irradiated IMR32 cells treated with 5 μM for 1 hour with or without CBR-470-1 competition (250 μM) (n=3). Shown on the right are initial proteomic target results from gel-band digestion and LC-MS/MS analysis. (b) Dye-based thermal denaturation assay with recombinant PGK1 in the presence CBR-470-1 (20 μM) or vehicle alone (n=3). Calculated Tm values are listed. (c, d) Dose-dependent thermal stability assay of recombinant PGK1 and GAPDH in the presence of increasing doses of CBR-470-1 near the Tm of both proteins (57° C.) (c) (n=5) or room temperature (d) (n=3). Western blot of sample supernatants after centrifugation (13,000 rpm) detected total PGK1 and GAPDH protein, which were plotted in Prism (below). (e) ARE-LUC reporter activity in HEK293T cells with transient shRNA.
Isothermal dose response profiling of PGK1. In-vitro thermal profiling assay for recombinant proteins was performed by dissolving pure recombinant PGK1 and GAPDH into PBS and dividing equal amount of mixture into 9 aliquots. […] Samples were analyzed by SDS-PAGE and Western blot.

Take `CC(=O)C=O` [MGx, methylglyoxal, reference compound]: in series [1], the “expression of NRF2 target genes NQO1 and HMOX1” value was “functionally activated expression of the downstream NRF2 target genes NQO1 and HMOX1”.

Take `CC(C)CN[C@H]1CS(=O)(=O)C[C@@H]1S(=O)(=O)c1ccc(Cl)cc1` [CBR-470-1]: the “viability in synergy matrix with BBGC” value with IMR32 cells is reported as “synergistic effects on viability rather than additivity”. The “reactivity in glutathione assays” value in series [2] is given as “not reactive in glutathione assays”. In addition, in series [3], the “IL-6 mRNA” value was “attenuated PM-induced l6 and TNFa mRNA expression”; the “NQO1 mRNA” value is “induced NQO1 (Nrf2 target gene)”; the “TNFa mRNA” value is “attenuated PM-induced l6 and TNFa mRNA expression”. In addition, the “alteration of PGK1 stability, isothermal dose response against PGK1 and GAPDH” value at PGK1 is listed as “selective, dose-dependent alteration of PGK1 stability”.
